Data published in US5254682A, “Cyclic renin inhibitors containing 3(S)-amino-4-cyclohexyl-2(R)-hydroxy-butanoic acid or 4-cyclo-hexyl-(2R, 3S)-dihydroxybutanoic acid or related analogs” (Merck & Co., Inc., priority 1991, dated 1993).
Read-outs that look alike come from different tables or passages of the source. Where a SMILES comes first, the peptide text is derived from it. [ ]: non-standard residue; d: D form. The star is where a group is joined. Sta = CC(C)C[C@H](N)[C@@H](O)CC(=O)O; Isovaleryl = CC(C)CC(=O)*

What was measured:
[1] = amide bond, 2 steps
[2] = system: sodium-deficient Rhesus monkeys; experiment: intravenous evaluation of renin inhibitors in conscious sodium-deficient Rhesus monkeys (blood pressure lowering); assay type: in vivo; conditions: i.v. bolus
Source text: The following methods were used for in vivo evaluation of the renin inhibitors of Formula I: Intravenous evaluation of renin inhibitors in concious sodium-deficient Rhesus monkeys: Rhesus monkeys, male and female, weighing 2.6-4.5 Kg, were surgically prepared with chronic arterial and venous catheters and vascular access ports for direct monitoring of mean arterial pressure (MAP) and heart rate (HR). The animals were maintained on a low sodium diet (1.2 mmol Na/day) plus fruit for a week, and administered LASIX (furosemide) at 2.5 mg/Kg, intramuscularly the evening prior to the experiment. The animals had been trained to sit quietly in the chairs with water ad libium for the duration of the experiment. The inhibitors were administered by bolus injection using 0.5% acetic acid-5% dextrose in water as the vehicle (0.4 ml/Kg), and MAP and HR were measured. Blood samples were withdrawn at different time intervals beginning at the nadir of hypotensive response. PRA was determined as described above. […] A projected ED50 dose for each inhibitor was calculated using the following formula: ED50 (Test Inhibitor, umoles/Kg)=ED50 (SCRIP) X [IC50 (Test Inhibitor)/IC50 (SCRIP)], where the IC50 values were determined against human plasma renin. […] Percent inhibition of monkey PRA, changes in MAP and HR were calculated and plotted against time. […]

## CC1CC(=O)NCCOC(=O)[C@H](O)[C@H](CC2CCCCC2)NC(=O)[C@H]1NC(=O)OCc1ccccc1 (stereo partly shown)
[1]; from CC(CC(=O)NCCOC(=O)[C@@H]1OC(C)(C)N(C(=O)OC(C)(C)C)[C@H]1CC1CCCCC1)[C@H](NC(=O)OCc1ccccc1)C(=O)OCC[Si](C)(C)C
  ring closure, yield of all isomers: 62%

## CC(C)CC1CNC(=O)CC[C@H](NC(=O)OCc2ccccc2)C(=O)N[C@@H](CC2CCCCC2)[C@@H](O)C(=O)O1 (stereo partly shown)
[1]; from CC(C)CC(CNC(=O)CC[C@H](NC(=O)OCc1ccccc1)C(=O)OC(C)(C)C)OC(=O)[C@@H]1OC(C)(C)N(C(=O)OC(C)(C)C)[C@H]1CC1CCCCC1, THF
  ring closure, yield of all isomers: 51%

## O=C1CC[C@H](NC(=O)OCc2ccccc2)C(=O)N[C@@H](CC2CCCCC2)[C@@H](O)C(=O)OC(CN2CCOCC2)CO1 (stereo partly shown)
[1]; from CC(C)(C)OC(=O)[C@H](CCC(=O)OCC(CN1CCOCC1)OC(=O)[C@@H]1OC(C)(C)N(C(=O)OC(C)(C)C)[C@H]1CC1CCCCC1)NC(=O)OCc1ccccc1, THF
  ring closure, yield of all isomers: 32%

## CC(C)(C)OC(=O)N[C@H]1CCC(=O)NCCCC2(OCCO2)[C@H](O)[C@H](CC2CCCCC2)NC1=O
[1]; from CC(C)(C)OC(=O)N[C@@H](CCC(=O)OCc1ccccc1)C(=O)N[C@@H](CC1CCCCC1)[C@@H](O)C1(CCCN=[N+]=[N-])OCCO1, DPPA, triethylamine
  ring closure, yield of all isomers: 30%

## O=C(N[C@H]1CSCCCCOC(=O)[C@H](O)[C@H](CC2CCCCC2)NC1=O)OCc1ccccc1
[1]; from N[C@@H](CC1CCCCC1)[C@@H](O)C(=O)OCCCCSC[C@H](NC(=O)OCc1ccccc1)C(=O)O
  ring closure, yield of all isomers: 34%

## O=C(N[C@H]1CSCCC[C@H](CN2CCOCC2)OC(=O)[C@H](O)[C@H](CC2CCCCC2)NC1=O)OCc1ccccc1
[1]; from N[C@@H](CC1CCCCC1)[C@@H](O)C(=O)O[C@H](CCCSC[C@H](NC(=O)OCc1ccccc1)C(=O)O)CN1CCOCC1
  ring closure, yield of all isomers: 38%

## CC(C)CC(=O)N[C@@H](Cc1c[nH]cn1)C(=O)N1CCC[C@H]1C(=O)N[C@@H](Cc1ccccc1)C(=O)N[C@@H](Cc1c[nH]cn1)C(=O)N[C@@H](CC(C)C)[C@@H](O)CC(=O)N[C@@H](CC(C)C)C(=O)N[C@@H](Cc1ccccc1)C(N)=O [SCRIP, Iva-His-Pro-Phe-His-Sta-Leu-Phe-NH2] (Isovaleryl-HPFH[Sta]LF-NH2)
[2]
  ED50 (i.v. dose required to lower blood pressure by 50% of the maximal response): 0.039 µmol/kg

## CC(C)(C)OC(=O)N[C@H]1CNC(=O)CCCCOC(=O)[C@H](O)[C@H](CC2CCCCC2)NC1=O
[1]; from CC(C)(C)OC(=O)N[C@@H](CNC(=O)OCc1ccccc1)C(=O)N[C@@H](CC1CCCCC1)[C@@H](O)C(=O)OCCCCC(=O)OCc1ccccc1, DPPA, triethylamine
  ring closure, yield of all isomers: 27%

## O=C1CC[C@H](NC(=O)OCc2ccccc2)C(=O)N[C@@H](CC2CCCCC2)[C@@H](O)C(=O)OC(CN2CCOCC2)CN1 (stereo partly shown)
[1]; from CC(C)(C)OC(=O)[C@H](CCC(=O)NCC(CN1CCOCC1)OC(=O)[C@@H]1OC(C)(C)N(C(=O)OC(C)(C)C)[C@H]1CC1CCCCC1)NC(=O)OCc1ccccc1
  ring closure, yield of all isomers: 61%

## CCCCC1CNC(=O)CC[C@H](NC(=O)OCc2ccccc2)C(=O)N[C@@H](CC2CCCCC2)[C@@H](O)C(=O)O1 (stereo partly shown)
[1]; from CCCCC(CNC(=O)CC[C@H](NC(=O)OCc1ccccc1)C(=O)OC(C)(C)C)OC(=O)[C@@H]1OC(C)(C)N(C(=O)OC(C)(C)C)[C@H]1CC1CCCCC1, EDC/HOBt
  ring closure, yield of all isomers: 54%
